Experimental data: patent publication US20020009464A1, “Modified glycosides, compositions comprised thereof and methods of use thereof” (priority 1997, published 2002)

Assays:
[1] = Release of model active from glass layers monitored by absorbance at 510 nm; format: physicochemical; details: aqueous 5% Tween 20, constant agitation
Source text: Disperse Red 1 was incorporated as a model active in a glass of lactitol nonaacetate (ratio 0.1/100 g/g) by melt mixing. The release of model active from 0.5 mm and 3 mm thickness layers of glass, into either water or an aqueous solution of 5% Tween 20, was monitored by absorbance at 510 nm.

[2] = Glass transition temperature (Tg) by differential scanning calorimetry; details: DSC, average of two runs
Source text: The acetylated polyol was recovered by evaporating off the solvent and the derivative characterized by nuclear magnetic resonance spectroscopy (NMR) and differential scanning calorimetry (DSC).
Tgs were obtained as the average of two runs.

Compound: CCN(CCO)c1ccc(N=Nc2ccc([N+](=O)[O-])cc2)cc1 [Disperse red 1]
- time to complete release of active ([1]; 0.5 mm thickness glass): 12 h
- time to complete release of active ([1]; 3 mm thickness glass): 72 h

Compound: α-D-glucopyranosyl-1→6-mannitol nonaacetate [GPM nonaacetate]
- Tg [2]: 35 °C

Compound: α-D-glucopyranosyl-1→6-sorbitol nonaacetate [GPS nonaacetate]
- Tg [2]: 17.4 °C
